≈ marks a conversion by molar mass, not a printed value.

Test [1] relates to KB. Briefly: Cytotoxicity (extracted with dichloromethane-methanol) was evaluated against KB tumor cell line. Type of test: functional. The following applies: Homo sapiens, read-out: ID50 (the source's name).
For test [2], the system named is KB. Briefly: Cytotoxicity (dichloromethane extract) was evaluated against KB tumor cell line. The format is functional. The following applies: Homo sapiens, read-out: ID50 (the source's name).

With `CC(C)CCC[C@@H](C)[C@H]1[C@@H](O)C[C@H]2[C@@H]3CC(=O)[C@H]4CC(=O)CC[C@]4(C)[C@H]3CC[C@]12C`, the IC50 stood at 0.5 µg/mL (≈ 1.2 µM) in the test with KB [1] and 5 µg/mL (≈ 12 µM) with KB [2].

Values taken from ChEMBL document CHEMBL1132815, “16Beta-hydroxy-5alpha-cholestane-3,6-dione, a novel cytotoxic oxysterol from the red alga Jania rubens” (2000).
